Reference: patent US5763430A, “Method of treating a viral infection by administering a steroid compound” (priority 1995, dated 1998)
In brackets after ≈: the same amount, converted by molar mass. Entries after “also recorded” stand apart in the source; their conditions may differ.

How the values were obtained:
[1] = system: Murine B16 melanoma; assay: growth inhibition in vitro; format: cell-based; conditions: except at very high concentrations
Source text: As set forth in Table 7 below, all malignant tumors evaluated in tissue culture, endothelial cells and vascular smooth muscle cells were sensitive to inhibition. Thus, compound 1436 has application in the control of growth factor dependent proliferation of many types of tissue.

[2] = system: human epithelial cell line MCF 10A; assay: growth inhibition of epithelial cells in vitro (absorbance at 600 nm); format: cell-based; conditions: 10 μg/ml, FIG. 3B
[3] = system: human coronary artery smooth muscle; assay: proliferation of human coronary artery smooth muscle in vitro; format: cell-based; conditions: FIG. 15
Source text: Aminosterols of the invention may also have utility in inhibiting the growth factor mediated proliferation of smooth muscle within the artery. Following coronary angioplasty, reocclusion commonly occurs, secondary to reparative proliferation of the vascular smooth muscle within the wall of the surgically manipulated blood vessel. This process generally takes place over the course of 7-10 days. To evaluate whether an agent could prevent the growth factor mediated proliferation of smooth muscle within the artery, compound 1436 was evaluated in vitro for its effect on the proliferation of human coronary artery smooth muscle. Results for compound 1436 are shown in FIG. 13, and those for squalamine are shown in FIG. 14, with FIG. 15 being a composite logarithmic plot.

[4] = system: chick chorioallantoic membrane; assay: chorioallantoic membrane (CAM) model, inhibition of capillary growth; format: in vivo; conditions: 3-Day embryo
Source text: The growing capillaries within the chorioallantoic membrane model (CAM model) have been used as a system in which to evaluate the effect of agents on their potential to inhibit new vessel growth. Neovascularization occurs most aggressively over the first week of embryonic development. Thereafter capillary growth is characterized by principally "elongation" rather than "de novo" formation.
In the standard assay, agents are applied locally to a region of the embryo over which neovascularization will occur. Agents are assessed by their ability to inhibit this process, as evaluated by visual examination about 7 days after application. […] The assay utilized is described in detail in Auerbach et al., Pharm. Ther. 51, 1991, 1-11.

[5] = system: melanoma 1205Lu; assay: suppression of growth of human melanoma in immunocompromised (RAG-1) mice; format: in vivo, human melanoma in mouse; conditions: FIG. 5, listed as Squalamine
Source text: As apparent from FIG. 5, melanoma 1205Lu develops aggressively in RAG-1 mice after implantation.

[6] = molecular target: rabbit NHE3 (Oryctolagus cuniculus, UniProt P26432)
Procedure: Internal pH was measured either following acid loading or in the absence of an acid-loading challenge, with the results shown in FIGS. 1A and 1B.
Specifically, PS120 fibroblasts transfected with rabbit NHE3 were grown in supplemented Dulbecco's-modified Eagle's medium as described by Levine et al., J. Biol. Chem. 268, 1993, 25527-25535. […] For cells not acid-preloaded, the actual internal pH value was monitored as a function of time following addition of squalamine, with the results depicted in FIG. 1B.
PS120 fibroblasts transfected with rabbit NHE3 were grown and acid preloaded by exposure to 40 mM NH4 Cl as described above in conjunction with FIGS. 1A and 1B. Internal cellular pH changes expressed as the rate of pH recovery as a function of restored extracellular sodium ion concentration following exposure to 10 μg/ml of the compound were assayed with the fluorescent dye BCECF-AM as described above.

[7] = system: stage 59-60 Xenopus tadpole; assay: Xenopus tadpole assay; conditions: 10 μg/ml; for tadpole response: about 1 hour
[8] = system: human NHE1; assay: internal pH changes in PS120 fibroblasts transfected with human NHE1; format: cell-based; conditions: 5 μg/ml, FIG. 2B
Procedure: (§1) PS120 fibroblasts transfected with rabbit: or human NHE1 were grown as described above.

[9] = system: rabbit NHE1; assay: internal pH changes in PS120 fibroblasts transfected with rabbit NHE1; format: cell-based; conditions: 5 μg/ml, FIG. 2A
Procedure: as §1

[10] = system: human foreskin fibroblasts; assay: growth inhibition of fibroblasts in vitro (absorbance at 600 nm); format: cell-based; conditions: 10 μg/ml, FIG. 3C
[11] = system: chick embryo vitelline capillaries; assay: chick embryo vitelline capillary regression assay; format: in vivo
Procedure: Using the chick embryo vitelline capillaries assay, compounds were tested for their ability to induce capillary regression. Each compound was applied in 0.1 ml of 15% Ficol 400 and PBS onto the embryo, and vascular regression was assessed after 60 minutes.
The 3-day chick embryo consists of an embryonic disc from which numerous vessels emerge and return, forming a "FIG. 8"-shaped structure--the embryo in the center with vascular loops extending outward over both poles. […] Following a lag period of around 15 minutes, the constriction of continuity between capillary and secondary vessels, generally on the "venous" side, was observed. Continued pulsatile blood flow progressed, resulting in a "swelling" of the blind tube, followed by a pinching off of the remaining connection and formation of an enclosed vascular sac resembling a "blood island." This process progressed until only the largest vessels remained intact.

[12] = system: human umbilical venous endothelial cells; assay: LPS-induced neutrophil adherence to human umbilical venous endothelial cells; conditions: 10 μg, 1.0 μg, or 0.1 μg; activated human endothelial cells
Procedure: In these experiments, approximately 2×10^5 human umbilical venous cells (passage 2-6) were plated per well. The cells were grown in serum-free media overnight. For induction, either TNF-α (40 ng/ml) was added to endothelial cells for 6 hours prior to adding neutrophils or LPS (100 ng/ml) was added for 4-6 hours. […] After activation of the endothelial cells, approximately 50×10^6 neutrophils were added per well. The plates were gently rocked for 30 minutes at room temperature, followed by removal of the media and washing in serum-free media three times and then photographing of each well. […] A monoclonal Ab to ICAM-1 was a positive control.

[13] = mouse IV PK study; format: in vivo; conditions: i.v., mouse blood stream, HPLC
Procedure: To assess clearance, a mouse IV PK study was performed for compound 319 and squalamine. The compound was administered i.v. and blood samples were taken every 10 minutes. The concentration of the administered steroid was determined by HPLC analysis.

[14] = system: P. aerug; assay: antibiotic activity (MIC); format: cell-based; conditions: P. aerug; read-out: MIC
Source text: (§2) Thus, it is possible to achieve an antimicrobial steroid with or without squalamine-like pharmacological activity.

[15] = system: C. albicans; assay: antibiotic activity (MIC); format: cell-based; conditions: Candida albicans; C. albicans; read-out: MIC
Source text: as §2

[16] = system: S. aureus; assay: antibiotic activity (MIC); format: cell-based; conditions: Staphylococcus aureus; S. aureus; read-out: MIC
Source text: as §2

[17] = system: E. coli; assay: antibiotic activity (MIC); format: cell-based; conditions: Escherichia coli; E. coli; read-out: MIC
Source text: as §2

[18] = system: human microvascular cells; assay: inhibition of endothelial cell cord formation in vitro; format: cell-based
How it was run: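 Human microvascular endothelial cells plated on collagen matrix with VEGF and basic FGF; compound effect on cord-like structure formation scored in a standard cord formation assay.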

Sequence of rabbit NHE3 (P26432 30-832): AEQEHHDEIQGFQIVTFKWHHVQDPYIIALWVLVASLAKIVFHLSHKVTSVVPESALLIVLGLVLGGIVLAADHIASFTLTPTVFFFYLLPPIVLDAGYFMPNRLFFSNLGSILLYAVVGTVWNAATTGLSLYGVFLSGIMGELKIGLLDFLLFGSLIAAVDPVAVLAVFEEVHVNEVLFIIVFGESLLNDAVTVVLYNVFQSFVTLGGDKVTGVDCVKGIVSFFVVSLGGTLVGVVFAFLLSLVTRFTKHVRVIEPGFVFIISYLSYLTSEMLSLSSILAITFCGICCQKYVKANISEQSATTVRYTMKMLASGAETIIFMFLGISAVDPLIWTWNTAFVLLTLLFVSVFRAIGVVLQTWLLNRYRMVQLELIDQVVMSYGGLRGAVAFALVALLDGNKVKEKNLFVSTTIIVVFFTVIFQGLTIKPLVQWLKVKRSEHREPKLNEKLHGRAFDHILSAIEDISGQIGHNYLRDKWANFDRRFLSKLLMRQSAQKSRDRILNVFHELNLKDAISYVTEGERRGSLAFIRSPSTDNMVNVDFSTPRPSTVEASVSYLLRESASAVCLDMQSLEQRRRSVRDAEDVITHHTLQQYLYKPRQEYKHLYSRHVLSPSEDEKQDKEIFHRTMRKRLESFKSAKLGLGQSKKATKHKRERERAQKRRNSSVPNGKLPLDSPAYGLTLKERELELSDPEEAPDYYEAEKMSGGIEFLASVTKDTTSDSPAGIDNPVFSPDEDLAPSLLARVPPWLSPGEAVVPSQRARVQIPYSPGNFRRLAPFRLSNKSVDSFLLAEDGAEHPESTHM

## CC(C)[C@@H](CC[C@@H](C)[C@H]1CC[C@H]2[C@@H]3[C@H](O)C[C@H]4C[C@@H](NCCCNCCCCN)CC[C@]4(C)[C@H]3CC[C@]12C)OS(=O)(=O)O [Compound 1256]
[1]
  cytostatic activity against B16 in culture: minimal cytostatic activity
[2]
  growth of epithelial cells: no effect on the growth
[3]
  growth of human coronary artery smooth muscle: suppress in vitro the growth
[4]; 0.65 μg, Assay 1
  Percentage positive: 28 Percentage
[4]; 1.25 μg, Assay 1
  Percentage positive: 18 Percentage
[4]; 1.25 μg, Assay 2
  Percentage positive: 18 Percentage
[4]; 1.25 μg, Mean
  Percentage positive: 18 Percentage
[4]; 2.5 μg, Assay 1
  Percentage positive: 35 Percentage
[4]; 2.5 μg, Assay 2
  Percentage positive: 18 Percentage
[4]; 2.5 μg, Mean
  Percentage positive: 27 Percentage
[4]; 5.0 μg, Assay 1
  Percentage positive: 91 Percentage
[4]; 5.0 μg, Assay 2
  Percentage positive: 57 Percentage
[4]; 5.0 μg, Mean
  Percentage positive: 74 Percentage
[4]; 20 μg, Assay 1, some vascular irritation
  Percentage positive: 52 Percentage
[4]; 20 μg, Assay 2, some vascular irritation
  Percentage positive: 58 Percentage
[4]; 20 μg, Mean
  Percentage positive: 55 Percentage
[4]; 40 μg, Assay 1, some vascular irritation
  Percentage positive: 50 Percentage
[4]; 40 μg, Assay 2, some vascular irritation
  Percentage positive: 13 Percentage
[4]; 40 μg, Mean
  Percentage positive: 32 Percentage
[4]; 20 and 40 μg
  vascular irritation: Some vascular irritation noted
[5]
  growth of melanoma 1205Lu: suppress the growth of melanoma 1205Lu in RAG-1 mice in a dose-dependent fashion; also recorded: clear suppression of tumor growth in a dose-dependent fashion
[6]; 5 μg/ml squalamine, FIGS. 1A, 1B
  inhibition of NHE3 (rate of pH recovery): inhibited NHE3 with respect to proton concentration at both Km and Vmax levels
[6]; 5 μg/ml, FIG. 1B, not acid-preloaded
  resting pH of cells: the resting pH of these cells was also inhibited
[7]
  time to death of tadpole: ≤ 2 h
  tadpole response: Vascular occlusion in fine capillaries of tail. No effect on vascular flow through hands or feet
[7]; listed as squalamine
  tadpole response: blood flow through the capillaries of the tail shut down; also recorded: common vascular occlusive effect
[8]
  inhibition of human NHE1: no inhibitory activity
[9]
  inhibition of rabbit NHE1: no inhibitory activity
[10]
  growth of fibroblasts: no effect on the growth
[11]; 3- to 5-day chick embryos
  effect on vitelline capillaries: disrupt vitelline capillaries
[11]; Table 5
  relative activity: especially active
[11]; constriction between capillary and secondary vessels
  lag period: around 15 minutes
[11]; in vivo, listed as Squalamine
  hemorrhage / hemolysis: No hemorrhage was seen; also recorded: absence of hemolysis
[12]
  inhibition of neutrophil adherence: no inhibition
[13]
  half-life: ~35 min
[14]
  MIC: 16 µg/mL (≈ 25.5 µM)
[15]
  MIC: 8 µg/mL (≈ 12.7 µM)
[16]
  MIC: 0.5 to 1 µg/mL (≈ 0.796 to 1.59 µM)
[17]
  MIC: 2 to 4 µg/mL (≈ 3.18 to 6.37 µM)
[18]; Homo sapiens, Endothelial cell, Table II, read-out: Minimum Effective Concentration, Cord Formation
  minimal effective concentration: 0.01 to 0.1 µg/mL
[18]; at cord-inhibiting concentrations
  cell viability or proliferation: does not appear to profoundly affect cell viability or proliferation
